Where a name gives a salt, the structure may show the parent alone. Read-outs that look alike come from different tables or passages of the source. Bounds are passed on as bounds.

Results on seven compounds are retold here after US8445653B2, “Freeze-dried preparation of stabilized anthracycline compound” (Dainippon Sumitomo Pharma, priority 2002, dated 2013).

For data set [1] the following is noted: injection sold in Japan dissolved in distilled water for injection or physiological saline solution; cited from earlier work.
The nature of data set [2]: pH of anthracycline injections when dissolved. The format is physicochemical. The following applies: lyophilized preparation for clinical administration dissolved in physiological saline solution or 5% glucose injection. How it is done:
Actually, when the anthracycline anticancer agents being sold in Japan (all of them are injections) are dissolved in a distilled water for injection or a physiological saline solution, the pH values thereof are as follows (Drugs (ethical drugs) in Japan, 24 ed., 2001, edited by Japan Pharmaceutical Information Center).
(§1) On the contrary, since amrubicin hydrochloride tends to generate a deaminated compound (3) at a pH value of 3.5 or above, it is unstable at a high pH value as shown in the above anthracycline anticancer agents, and when the lyophilized preparation of amrubicin hydrochloride for clinical administration is dissolved in a physiological saline solution or a 5% glucose injection, the pH value thereof is 2.4 to 3.0.

A short description of data set [3]: Degradation in solution state at controlled solution temperature (Experiment 4). In kind it is physicochemical. How it is done:
To amrubicin hydrochloride (20 mg potency) in a glass beaker were added L-cysteine hydrochloride monohydrate (3.2 mg) and lactose (50 mg) as an excipient, and the resultant was dissolved in a distilled water for injection. The pH value of the solution was slightly adjusted to about pH 3 with a trace amount of sodium hydroxide and hydrochloric acid, and the resulting solution was put into a temperature-controlled bath at 5° C., 10° C., 15° C. and 25° C. The solution was sampled at the start, 6 hours later, and 24 hours later, and the degradation products therein were measured by HPLC method. The increased amounts of the desaccharified compound (2) and the deaminated compound (3) from those at the start are shown in Table 4.

A short description of data set [4]: pH dependence of generation of deaminated compound (3) from amrubicin hydrochloride. In kind it is physicochemical. As to the method:
as §1

A short description of data set [5]: Turbidity of injection solution prepared from lyophilized amrubicin preparation. The format is physicochemical.
The mark [6] stands for this setting: solution about pH 3, 5° C., 6 h.
Setting [7] is: solution about pH 3, 5° C., 24 h.
Where [8] appears, read: solution about pH 3, 10° C., 0 h.
Where [9] appears, read: solution about pH 3, 10° C., 6 h.
The mark [10] stands for this setting: solution about pH 3, 10° C., 24 h.
[11] abbreviates: solution about pH 3, 15° C., 0 h.
[12] abbreviates: solution about pH 3, 15° C., 6 h.
Setting [13] is: solution about pH 3, 15° C., 24 h.
[14] abbreviates: solution about pH 3, 25° C., 0 h.
The mark [15] stands for this setting: solution about pH 3, 25° C., 6 h.
[16] abbreviates: solution about pH 3, 25° C., 24 h.

With `CC(=O)[C@]1(O)Cc2c(O)c3c(c(O)c2[C@@H](O[C@H]2C[C@H](N)[C@H](O)[C@H](C)O2)C1)C(=O)c1ccccc1C3=O` [Idarubicin hydrochloride], the pH value in data set [1] was 5.0-7.0.

`COc1cccc2c1C(=O)c1c(O)c3c(c(O)c1C2=O)C[C@@](O)(C(=O)CO)C[C@@H]3O[C@H]1C[C@H](N)[C@H](O)[C@H](C)O1` [Doxorubicin hydrochloride]: in data set [1], the pH value was 5.0-6.0.

Compound `CC(=O)[C@]1(N)Cc2c(O)c3c(c(O)c2[C@@H](O[C@H]2C[C@H](O)[C@H](O)CO2)C1)C(=O)c1ccccc1C3=O` [amrubicin hydrochloride, (7S,9S)-9-Acetyl-9-amino-7-[(2-deoxy-β-D-erythro-pentopyranosyl)-oxy]-7,8,9,10-tetrahydro-6,11-dihydroxy-5,12-naphthacenedione] came in with a pH value in data set [2] of 2.4 to 3.0. Moreover, the “Increased amount of deaminated compound (3)” value turned out to be 0.00% in data set [3] (solution about pH 3, 5° C., 0 h); 0.00% in data set [3] (setting [6]); 0.04% in data set [3] (setting [7]); 0.00% in data set [3] (setting [8]); 0.00% in data set [3] (setting [9]); 0.09% in data set [3] (setting [10]). In addition, the “Increased amount of deaminated compound (3)” value came to 0.00% in data set [3] (setting [11]); 0.07% in data set [3] (setting [12]); 0.24% in data set [3] (setting [13]); 0.00% in data set [3] (setting [14]); 0.19% in data set [3] (setting [15]); 0.60% in data set [3] (setting [16]). The “Increased amount of desaccharified compound (2)” value in data set [3] (setting [6]) is listed as −0.01%; in data set [3] (setting [7]) it was 0.02%; in data set [3] (setting [8]), 0.00%; in data set [3] (setting [9]), 0.01%; in data set [3] (setting [10]) it was 0.01%; in data set [3] (setting [11]) it was 0.00%. For the same compound, the “Increased amount of desaccharified compound (2)” value in data set [3] (setting [12]) is listed as 0.00%; in data set [3] (setting [13]), −0.01%; in data set [3] (setting [14]), 0.00%; in data set [3] (setting [15]), 0.05%; in data set [3] (setting [16]) it was 0.18%; in data set [3] (solution about pH 3 with L-cysteine hydrochloride monohydrate and lactose, 5° C., 0 h), 0.00%. Also, in data set [4], the “pH value at which deaminated compound (3) tends to be generated” value is given as not below 3.5.

For the compound `CC(=O)C1=Cc2c(O)c3c(c(O)c2[C@@H](OC2CC(O)C(O)CO2)C1)C(=O)c1ccccc1C3=O` (some centres unmarked) [deaminated compound (3)], in data set [5], the “Ratio at which it may cause turbidity of the injection solution” value is recorded as not below 1%.

On to `COc1cccc2c1C(=O)c1c(O)c3c(c(O)c1C2=O)C[C@@](O)(C(C)=O)C[C@@H]3O[C@H]1C[C@H](N)[C@H](O)[C@H](C)O1` [Daunorubicin hydrochloride], for which the pH value in data set [1] is 5.0-6.5.

As for `CC[C@@]1(O)C[C@H](O[C@H]2C[C@H](N(C)C)[C@H](O[C@H]3C[C@H](O)[C@H](O[C@H]4CCC(=O)[C@H](C)O4)[C@H](C)O3)[C@H](C)O2)c2c(cc3c(c2O)C(=O)c2c(O)cccc2C3=O)[C@H]1C(=O)OC` [Aclarubicin hydrochloride], the pH value in data set [1] is recorded as 5.0-6.5.

In the case of `COc1cccc2c1C(=O)c1c(O)c3c(c(O)c1C2=O)C[C@@](O)(C(=O)CO)C[C@@H]3O[C@H]1C[C@H](N)[C@H](O[C@@H]2CCCCO2)[C@H](C)O1.Cl` [Pirarubucin hydrochloride], the pH value in data set [1] was 5.0-6.5.
